Test results reported in patent US10907199B2, “Double-strand DNA break quantification method” (SOCIETE DE COMMERCIALISATION DES PRODUITS DE LA RECHERCHE …, priority 2017, dated 2021).

Molecular target: T1, terminal deoxynucleotidyl transferase (TdT) (Bos taurus, UniProt P06526)
T1 construct: purchased Roche (Sigma-Aldrich Canada) 3333574001
Test: TdT inhibition by ATP: tailing reaction of linearized pBlueScript plasmid with TdT and dATP, read by DNA size shift on agarose gel
Assay type: biochemical
Protocol: Linearized pBlueScript plasmid was used in a tailing reaction using TdT and dATP following manufacturer's instruction. Different concentrations of ATP were added in the reaction and the tailing efficiency was observed after agarose gel electrophoresis by a shift in the DNA size. It was sought to determine conditions for efficient repair of DNA nicks and gaps prior to the TdT end labeling. A proper combination of T4 DNA ligase and T4 DNA polymerase was used to seal nicks and fill the gaps respectively and termed «Nick and Gap Repair» (NGR). […] Limiting the purification steps is crucial to improve DNA recovery throughout the process. It was observed that TdT is inhibited by the high concentration of ATP recommended for DNA ligations (1 mM, FIG. 6). However, it was determined that efficient DNA nick sealing is still observed by decreasing the ATP concentration to 1 μM. […] From these simple modifications, both repair and labeling reactions can be performed without the need for DNA purification between these steps. It is worth noting that although the use of «Tap» DNA ligase would have the advantage of preventing DSB ligations, T4 DNA ligase was however strongly preferred because of its compatibility with the gap-filling step and its greater nick sealing activity (not shown). The efficiency of the repair step for the specific capture of DSBs within genomic DNA was established using HeLa-I-SceI DNA pre-digested with the nicking endonuclease Nt.BbvCI as this enzyme creates a single nick within a 7 nucleotide recognition sequence. A single Nt.BbvCI recognition sequence is present within the I-SceI insert and can be detected by DBrIC using a primer pair adjacent to the nick (FIG. 5C).

T1 sequence (P06526 139-509 limits assumed): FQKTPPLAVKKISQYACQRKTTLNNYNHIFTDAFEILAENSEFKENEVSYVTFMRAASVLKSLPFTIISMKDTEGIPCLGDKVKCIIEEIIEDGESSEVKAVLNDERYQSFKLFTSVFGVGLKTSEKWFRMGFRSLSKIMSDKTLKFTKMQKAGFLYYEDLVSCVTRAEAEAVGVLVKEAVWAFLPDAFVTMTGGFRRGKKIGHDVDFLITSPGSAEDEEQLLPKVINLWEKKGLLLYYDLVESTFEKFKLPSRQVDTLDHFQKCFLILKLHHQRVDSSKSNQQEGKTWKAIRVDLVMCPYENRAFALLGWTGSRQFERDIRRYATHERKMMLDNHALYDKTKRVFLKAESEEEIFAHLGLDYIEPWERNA

Nc1ncnc2c1ncn2[C@@H]1O[C@H](COP(=O)(O)OP(=O)(O)OP(=O)(O)O)[C@@H](O)[C@H]1O [ATP, adenosine triphosphate]
subsequent TdT reaction in presence of ATP (1 μM ATP): proceed normally
enzymatic activity of the TdT in presence of ATP (10 μM ATP (usual concentration for DNA ligase and DNA polymerase), FIG. 6): inhibit
TdT enzymatic activity (tailing efficiency) in presence of ATP (1 mM ATP (high concentration recommended for DNA ligations), FIG. 6): inhibited
